1 compound from US6500826B1, “Use of panaverium bromide for preventing cell proliferation and diseases caused thereby in the liver and digestive tract” (Solvay Pharma, priority 1996, dated 2002) can be followed below.

What all share (format): cell-based
Assay [1] relates to HT29 colon cancer cell line. As to the kind of experiment: Inhibition of proliferation of HT29 colon cancer cells, tritiated thymidine incorporation. Particulars: Homo sapiens, HT-29, 15 h, read-out: % Inhibition of cell proliferation (3HThdR incorporation). As to the method: The HT29 colon cancer cell line employed (originally isolated from an adenocarcinoma of the human colon) was obtained from the ATCC (American Type Culture Collection).
The cells are cultured at the rate of 10^4 or 5×10^4 cells in a well containing 200 μl of culture medium composed of RPMI […] supplemented with 10% fetal calf serum, 2 mM of L-glutamine and 25 μM gentamicin.
For orientation: Incorporation of labelled thymidine or its analogues reports DNA synthesis.

Assay [2] concerns STC-1 mouse intestinal cancer cell lines. As to the kind of experiment: Growth of STC-1 carcinoid intestinal cells, cell counting or MUH fluorescence. Particulars: STC-1, read-out: ED50 (cell growth). As to the method:
The STC-1 mouse intestinal cancer cell lines are cultured in a DMEM medium which contains 15% horse serum and 2.5% FCS. The products to be studied are added to the culture and cell growth is assessed by counting cells or, more frequently, by a fluorescence technique which is based on the cellular enzymic hydrolysis of the fluorogenic substrate 4-methylumbelliferyl heptanoate (MUH); thus, viable cells which are incubated with MUH generate a fluorescent signal which is proportional to their number and which is determined using a “Titentec Fluoroscan II” (Flow Laboratory), with the value being given in arbitrary fluorescence units.

The subject of assay [3] is LFC rat hepatocarcinoma cells. As to the kind of experiment: Inhibition of proliferation of LFC hepatocarcinoma cells, tritiated thymidine incorporation. Particulars: concentrations of 0.1% and 1% by weight. On the procedure:
LFC rat hepatocarcinoma cells (VPR42, Villejuif) are cultured at the rate of 10^4 or 5×10^4 cells in a well containing 200 μl of culture medium.
Inhibition of cell proliferation is assessed using tritiated thymidine as described in Test 1. The assessment is made in comparison with the reference product, which is verapamil.

The subject of assay [4] is BON human pancreatic carcinoid cell lines. Briefly: Inhibition of growth of BON pancreatic carcinoid cells, MUH fluorescence. Particulars: 192 h, read-out: ED50 (inhibition of cell growth). On the procedure: The BON human pancreatic carcinoid cell lines are cultured in a DMEM/F12K (1/1) medium to which 10% FCS is added.

In the case of `COc1ccc(CCN(C)CCCC(C#N)(c2ccc(OC)c(OC)c2)C(C)C)cc1OC` (stereo not drawn) [verapamil], in assay [1], the inhibition at 0.025 % strength was determined as 17%, the inhibition at 0.05 % strength amounted to 17% and the inhibition at 0.1 % strength is 27%. The EC50 in assay [2] amounted to 13 µM. Moreover, in assay [3], the “percentage inhibition of proliferation” value was 72%. Also, in assay [4], the EC50 is 43.6 µM.
